Measurements published in patent US9102648B1, “Bioavailable diacylhydrazine ligands for modulating the expression of exogenous genes via an ecdysone receptor complex” (Intrexon Corporation, priority 2003, dated 2015).

Legend:
[1] = biological target: T1, Bombyx mori EcR (VP16 fusion, CVBE switch construct) (Bombyx mori, UniProt P49881); assay: Z3 Assay (HEK-293 cells with CVBE and 6XEcRE LacZ, β-galactosidase reporter); conditions: for Fold Induction, Z3 Assay, 3.3 uM: 3.3 uM ligand; for Fold Induction, Z3 Assay, 3.3 uM / Fold Induction, Z3 Assay, 33 uM: ligand treated / DMSO treated cells; for Fold Induction, Z3 Assay, 3.3 uM / EC50 / Fold Induction, Z3 Assay, 33 uM: average of two wells; for Z3 assay Rel Max FI: maximum fold induction at any concentration relative to that of GS-E ligand; for Z3 assay Rel Max FI / EC50: HEK-293 Z3 cells; for EC50: read-out: Z3 assay EC50, β-galactosidase reporter; for Fold Induction, Z3 Assay, 33 uM: 33 uM ligand
T1 sequence (P49881 86-606): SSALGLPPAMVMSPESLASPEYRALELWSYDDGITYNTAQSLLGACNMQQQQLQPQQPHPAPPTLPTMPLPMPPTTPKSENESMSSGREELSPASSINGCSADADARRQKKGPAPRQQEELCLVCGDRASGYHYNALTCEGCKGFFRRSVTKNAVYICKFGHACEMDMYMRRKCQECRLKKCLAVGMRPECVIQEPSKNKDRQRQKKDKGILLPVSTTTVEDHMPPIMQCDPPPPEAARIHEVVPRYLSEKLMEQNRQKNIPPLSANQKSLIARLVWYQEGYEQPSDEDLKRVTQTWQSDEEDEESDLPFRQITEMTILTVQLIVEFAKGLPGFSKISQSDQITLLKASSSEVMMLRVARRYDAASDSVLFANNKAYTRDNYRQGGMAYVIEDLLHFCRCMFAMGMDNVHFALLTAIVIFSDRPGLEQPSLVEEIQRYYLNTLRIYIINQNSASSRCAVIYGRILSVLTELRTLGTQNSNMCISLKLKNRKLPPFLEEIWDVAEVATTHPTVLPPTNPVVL
T1 sequence (P19793 1-462 partner): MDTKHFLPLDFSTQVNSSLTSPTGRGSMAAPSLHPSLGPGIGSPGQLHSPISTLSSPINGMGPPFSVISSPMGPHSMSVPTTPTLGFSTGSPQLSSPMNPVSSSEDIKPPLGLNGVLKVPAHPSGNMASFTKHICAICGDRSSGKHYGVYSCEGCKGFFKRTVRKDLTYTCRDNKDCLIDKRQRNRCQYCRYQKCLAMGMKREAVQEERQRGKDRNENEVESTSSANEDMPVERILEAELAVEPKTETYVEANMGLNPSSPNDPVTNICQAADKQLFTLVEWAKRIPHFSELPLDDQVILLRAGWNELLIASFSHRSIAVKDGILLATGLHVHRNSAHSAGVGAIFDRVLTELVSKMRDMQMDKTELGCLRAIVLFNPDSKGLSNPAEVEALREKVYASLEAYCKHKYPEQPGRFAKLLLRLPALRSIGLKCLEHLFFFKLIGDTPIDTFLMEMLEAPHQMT
Source text: Dr. F. Gage provided a population of stably transformed cells containing CVBE and 6XEcRE as described in Suhr, S. T., Gil, E. B., Senut M. C., Gage, F. H. (1998) Proc. Natl. Acad. Sci. USA 95, 7999-804. Human 293 kidney cells, also referred to as HEK-293 cells, were sequentially infected with retroviral vectors encoding first the switch construct CVBE, and subsequently the reporter construct 6XEcRE Lac Z. The switch construct contained the coding sequence for amino acids 26-546 from Bombyx mori EcR (BE) (Iatrou) inserted in frame and downstream of the VP16 transactivation domain (VBE). A synthetic ATG start codon was placed under the control of cytomegalovirus (CVBE) immediate early promoter and flanked by long terminal repeats (LTR). The reporter construct contained six copies of the ecdysone response element (EcRE) binding site placed upstream of LacZ and flanked on both sides with LTR sequences (6XEcRE).
Dilution cloning was used to isolate individual clones. Clones were selected using 450 ug/mL G418 and 100 ng/mL puromycin. Individual clones were evaluated based on their response in the presence and absence of test ligands.
Human 293 kidney cells stably transformed with CVBE and 6XEcRE LacZ were maintained in Minimum Essential Medium (Mediates, 10-010-CV) containing 10% FBS (Life Technologies, 26140-087), […] G418 (Mediates, 30-234-CR), and […] (Sigma, P-7255), at 37° C. in an atmosphere containing 5% CO2 and were subculture when they reached 75% confluence.
Z3 cells were seeded into 96-well tissue culture plates at a concentration of 2.5×10^3 cells per well and incubated at 37° C. in 5% CO2 for twenty-four hours. Stock solutions of ligands were prepared in DMSO. Ligand stock solutions were diluted 100 fold in media and 50 μL of this diluted ligand solution ([…]) was added to cells. The final concentration of DMSO was maintained at 0.03% in both controls and treatments.
Reporter gene expression was evaluated 48 hours after treatment of cells, β-galactosidase activity was measured using Gal Screen™ bioluminescent reporter gene assay system from Tropix (GSY1000). Fold induction activities were calculated by dividing relative light units (“RLU”) in ligand treated cells with RLU in DMSO treated cells. Luminescence was detected at room temperature using a Dynex MLX microtiter plate luminometer.
Flanking both constructs are long terminal repeats, G418 and puromycin are selectable markers, CMV is the cytomegalovirus promoter, VBE is coding sequence for amino acids 26-546 from Bombyx mori EcR inserted downstream of the VP16 transactivation domain, 6×EcRE is six copies of the ecdysone response element, lacZ encodes for the reporter enzyme β-galactosidase.
(§1) Each assay was conducted in two separate wells, and the two values were averaged. Fold inductions were calculated by dividing relative light units (“RLU”) in ligand treated cells with RLU in DMSO treated cells. EC50s were calculated from dose response data using a three-parameter logistic model.

[2] = biological target: GAL4 DBD (1-147)-CfEcR(DEF)/VP16AD-βRXREF-LmUSPEF (Choristoneura fumiferana, UniProt O77240); assay: cell-based; conditions: for Fold Induction, 27-63 Assay, 3.3 uM: 3.3 uM ligand; for Fold Induction, 27-63 Assay, 3.3 uM / Fold Induction, 27-63 Assay, 33 uM: RLU ligand treated / RLU DMSO treated cells; for Fold Induction, 27-63 Assay, 3.3 uM / Fold Induction, 27-63 Assay, 33 uM / EC50: average of two wells; for Fold Induction, 27-63 Assay, 33 uM: 33 uM ligand; for 27-63 assay Rel Max FI: maximum fold induction at any concentration relative to that of GS-E ligand, CHO 27-63 cells; for EC50: read-out: 27-63 assay EC50, CHO 27-63 stable cell line, luciferase reporter
Source text: GAL4 DBD (1-147)-CfEcR(DEF)/VP16AD-βRXREF-LmUSPEF:
The wild-type D, E, and F domains from spruce budworm Choristoneura fumiferana EcR (“CfEcR-DEF”; SEQ ID NO: 1) were fused to a GAL4 DNA binding domain (“Gal4DBD1-147”; SEQ ID NO: 2) and placed under the control of a phosphoglycerate kinase promoter (“PGK”; SEQ ID NO: 3). Helices 1 through 8 of the EF domains from Homo sapiens RXRβ (“HsRXRβ-EF”; nucleotides 1-465 of SEQ ID NO: 4) and helices 9 through 12 of the EF domains of Locusta migratoria Ultraspiracle Protein (“LmUSP-EF”; nucleotides 403-630 of SEQ ID NO: 5) were fused to the transactivation domain from VP16 (“VP16AD”; SEQ ID NO: 6) and placed under the control of an elongation factor-1α promoter (“EF-1α”; SEQ ID NO: 7). Five consensus GAL4 response element binding sites (“5XGAL4RE”; comprising 5 copies of a GAL4RE comprising SEQ ID NO: 8) were fused to a synthetic TATA minimal promoter (SEQ ID NO: 9) and placed upstream of the luciferase reporter gene (SEQ ID NO: 10).
CHO cells were transiently transfected with transcription cassettes for GAL4 DBD (1-147) CJEcR(DEF) and for VP16AD βRXREF-LmUSPEF controlled by ubiquitously active cellular promoters (PGK and EF-la, respectively) on a single plasmid. Stably transfected cells were selected by Zeocin resistance. Individually isolated CHO cell clones were transiently transfected with a GAL4 RE-luciferase reporter (pFR Luc). 27-63 clone was selected using Hygromycin.
Cells were trypsinized and diluted to a concentration of 2.5×10^4 cells mL. 100 μL of cell suspension was placed in each well of a 96 well plate and incubated at 37° C. under 5% CO2 for 24 h. Ligand stock solutions were prepared in DMSO and diluted 300 fold for all treatments. Dose response testing consisted of 8 concentrations ranging from […] to 0.01 μM.
Luciferase reporter gene expression was measured 48 h after cell treatment using Bright-Glo™ Luciferase Assay System from Promega (E2650). Luminescence was detected at room temperature using a Dynex MLX microtiter plate luminometer.
as §1

CCc1c(OC)cccc1C(=O)NN(C(=O)c1n[nH]c2ccccc12)C(C)(C)C [RG-115723, 1H-Indazole-3-carboxylic acid N-tert-butyl-N′-(2-ethyl-3-methoxy-benzoyl)-hydrazide]
fold induction at 33 µM ([1]; HEK293, read-out: Fold Induction, Z3 Assay, 33 uM): 17

CCCCC(N(NC(=O)c1ccc(CC)cc1)C(=O)c1cccnc1OC)C(C)(C)C (centres unmarked) [RG-115842]
Fold Induction, 27-63 Assay, 3.3 uM [2]: 1269
Fold Induction, 27-63 Assay, 33 uM [2]: 447
27-63 assay Rel Max FI [2]: 0.524
EC50 [2]: 1200 nM

Cc1cc(C)cc(C(=O)N(NC(=O)c2ccc3cc[nH]c3c2)C(C)(C)C)c1 [RG-115689]
Fold Induction, Z3 Assay, 3.3 uM [1]: 13
Z3 assay Rel Max FI [1]: 0.411
EC50 [1]: 100000 nM

CCc1c(OC)cccc1C(=O)NN(C(=O)c1cc(C)n(-c2ccccc2)n1)C(C)(C)C [RG-115721]
Fold Induction, Z3 Assay, 33 uM [1]: 2

COc1cccc(C(=O)NN(C(=O)c2ccc(C(F)(F)F)nc2OC)C(C)(C)C)c1C [RG-115834]
Fold Induction, 27-63 Assay, 3.3 uM [2]: 1900
Fold Induction, 27-63 Assay, 33 uM [2]: 1837
27-63 assay Rel Max FI [2]: 0.733
EC50 [2]: 1170 nM

CCc1ccc(C(=O)NN(C(=O)c2ccccc2OC)C(C)(C)C)c(F)c1 [RG-115422]
Fold Induction, Z3 Assay, 3.3 uM [1]: 204
Z3 assay Rel Max FI [1]: 0.769
EC50 [1]: 398 nM

CCc1c(C(=O)NN(C(=O)c2ccc(C)cc2)C(C)(C)C)ccc2c1OCOC2 [RG-115611]
Fold Induction, Z3 Assay, 3.3 uM [1]: 745
Z3 assay Rel Max FI [1]: 0.703
EC50 [1]: 1580 nM

CCc1ccc(C(=O)NN(C(=O)c2cc(F)ccc2[N+](=O)[O-])C(C)(C)C)c(F)c1 [RG-115086]
Fold Induction, Z3 Assay, 3.3 uM [1]: 433
Z3 assay Rel Max FI [1]: 0.433
EC50 [1]: 692 nM

COc1cc(C(=O)N(NC(=O)c2cccc(OC(C)=O)c2C)C(C)(C)C)cc(OC)c1C [RG-115557]
Fold Induction, Z3 Assay, 3.3 uM [1]: 426
Z3 assay Rel Max FI [1]: 0.566
EC50 [1]: 1700 nM

Cc1c(O)cccc1C(=O)NN(C(=O)c1cc(Cl)nc(Cl)c1)C(C)(C)C [RG-115261]
Fold Induction, Z3 Assay, 3.3 uM [1]: 31
Z3 assay Rel Max FI [1]: 0.498
EC50 [1]: 29500 nM

CCc1c(OC)cccc1C(=O)NN(C(=O)c1ccc(C(=O)OC)cn1)C(C)(C)C [RG-115717]
Fold Induction, Z3 Assay, 33 uM [1]: 9
